From the supplement of paper PMC11919725

Tests used:
[1] = system: Primary T cells CD4+ naive; assay: cytotoxicity relative to DMSO, 18 h (ratio); higher = less cell death (drugs called cytotoxic fall below 1)
Outline: (§1)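 Jurkat or primary CD4+/CD8+ T cells (naive, or activated 48 h with CD3/CD28 Dynabeads) were treated 18 h with compound at 1 nM–10 µM (log10 steps) at 37 °C, 5% CO2. Then 100 µl of suspension went into 96-well plates with IncuCyte Cytotox Dye (250 nM final). Cytotoxicity came from IncuCyte fluorescence imaging (×10, five images per well, hourly over 3 h). Signals were corrected for confluency, then normalised to mean DMSO controls.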

[2] = system: Primary T cells CD8+ naive; assay: as above
Outline: as §1

[3] = system: Primary T cells CD4+ activated; assay: as above
Outline: as §1

[4] = system: Primary T cells CD8+ activated; assay: as above
Outline: as §1

Jurkat [5] = assay: as above
Outline: as §1

[6] = system: Primary T cells CD4+ naive; assay: metabolic activity relative to DMSO, 18 h (ratio); higher = more viable
Outline: (§2)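 Naive or CD3/CD28 Dynabead-activated (48 h) primary CD4+/CD8+ T cells, or Jurkat cells, received compound at 1 nM–10 µM for 18 h. Readout used alamarBlue at 10% v/v final, with fluorescence taken after 3.5 h. Metabolic activity is given relative to mean vehicle control values.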

[7] = system: Primary T cells CD8+ naive; assay: as above
Outline: as §2

[8] = system: Primary T cells CD4+ activated; assay: as above
Outline: as §2

[9] = system: Primary T cells CD8+ activated; assay: as above
Outline: as §2

Jurkat [10] = assay: as above
Outline: as §2

[11] = system: Primary T cells CD4+ naive; assay: confluency relative to DMSO, 18 h (ratio); higher = more viable
Outline: (§3)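 Naive or CD3/CD28 Dynabead-activated (48 h) primary CD4+/CD8+ T cells, or Jurkat cells, received compound at 1 nM–10 µM for 18 h at 37 °C. Confluency was measured by IncuCyte phase-contrast imaging with the Basic Analyzer and normalised to the mean of the control wells. Imaging used 100 µl of suspension per well in 96-well plates with IncuCyte Cytotox Dye and alamarBlue, at ×10 with five images per well every hour for 3 h.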

[12] = system: Primary T cells CD8+ naive; assay: as above
Outline: as §3

[13] = system: Primary T cells CD4+ activated; assay: as above
Outline: as §3

[14] = system: Primary T cells CD8+ activated; assay: as above
Outline: as §3

Jurkat [15] = assay: as above
Outline: as §3

Cc1[nH]c2ccccc2c1CCNCc1ccc(C=CC(=O)NO)cc1 [Panobinostat]
cytotoxicity ([1]; 1 nM): 1.29
cytotoxicity ([1]; 10 nM): 0.906
cytotoxicity ([1]; 100 nM): 1.33
cytotoxicity ([1]; 1000 nM): 1.19
cytotoxicity ([1]; 10000 nM): 0.853
cytotoxicity ([2]; 1 nM): 1.34
cytotoxicity ([2]; 10 nM): 0.493
cytotoxicity ([2]; 100 nM): 1.16
cytotoxicity ([2]; 1000 nM): 0.814
cytotoxicity ([2]; 10000 nM): 1.06
cytotoxicity ([3]; 1 nM): 1.04
cytotoxicity ([3]; 10 nM): 1.08
cytotoxicity ([3]; 100 nM): 1.32
cytotoxicity ([3]; 1000 nM): 1.5
cytotoxicity ([3]; 10000 nM): 0.92
cytotoxicity ([4]; 1 nM): 0.993
cytotoxicity ([4]; 10 nM): 0.888
cytotoxicity ([4]; 100 nM): 1.11
cytotoxicity ([4]; 1000 nM): 1.34
cytotoxicity ([4]; 10000 nM): 1.3
cytotoxicity (Jurkat [5]; 1 nM): 0.94
cytotoxicity (Jurkat [5]; 10 nM): 0.843
cytotoxicity (Jurkat [5]; 100 nM): 0.933
cytotoxicity (Jurkat [5]; 1000 nM): 0.873
cytotoxicity (Jurkat [5]; 10000 nM): 0.921
metabolic activity ([6]; 1 nM): 0.856
metabolic activity ([6]; 10 nM): 0.957
metabolic activity ([6]; 100 nM): 0.728
metabolic activity ([6]; 1000 nM): 0.726
metabolic activity ([6]; 10000 nM): 0.813
metabolic activity ([7]; 1 nM): 0.913
metabolic activity ([7]; 10 nM): 0.881
metabolic activity ([7]; 100 nM): 0.836
metabolic activity ([7]; 1000 nM): 0.779
metabolic activity ([7]; 10000 nM): 0.766
metabolic activity ([8]; 1 nM): 0.998
metabolic activity ([8]; 10 nM): 0.826
metabolic activity ([8]; 100 nM): 0.627
metabolic activity ([8]; 1000 nM): 0.616
metabolic activity ([8]; 10000 nM): 0.875
metabolic activity ([9]; 1 nM): 1
metabolic activity ([9]; 10 nM): 0.909
metabolic activity ([9]; 100 nM): 0.738
metabolic activity ([9]; 1000 nM): 0.725
metabolic activity ([9]; 10000 nM): 0.778
metabolic activity (Jurkat [10]; 1 nM): 1.05
metabolic activity (Jurkat [10]; 10 nM): 0.782
metabolic activity (Jurkat [10]; 100 nM): 0.681
metabolic activity (Jurkat [10]; 1000 nM): 0.72
metabolic activity (Jurkat [10]; 10000 nM): 0.849
confluency ([11]; 1 nM): 1.2
confluency ([11]; 10 nM): 1.02
confluency ([11]; 100 nM): 1.29
confluency ([11]; 1000 nM): 1.13
confluency ([11]; 10000 nM): 0.869
confluency ([12]; 1 nM): 1.19
confluency ([12]; 10 nM): 0.473
confluency ([12]; 100 nM): 1.08
confluency ([12]; 1000 nM): 0.774
confluency ([12]; 10000 nM): 0.932
confluency ([13]; 1 nM): 1.04
confluency ([13]; 10 nM): 1.01
confluency ([13]; 100 nM): 1.17
confluency ([13]; 1000 nM): 1.35
confluency ([13]; 10000 nM): 1.02
confluency ([14]; 1 nM): 0.974
confluency ([14]; 10 nM): 0.886
confluency ([14]; 100 nM): 1.04
confluency ([14]; 1000 nM): 1.26
confluency ([14]; 10000 nM): 1.21
confluency (Jurkat [15]; 1 nM): 0.912
confluency (Jurkat [15]; 10 nM): 0.937
confluency (Jurkat [15]; 100 nM): 1.01
confluency (Jurkat [15]; 1000 nM): 0.992
confluency (Jurkat [15]; 10000 nM): 0.978

Nc1cc(F)ccc1NC(=O)c1ccc(CNC(=O)C=Cc2cccnc2)cc1 [Tucidinostat]
cytotoxicity ([1]; 1 nM): 1.13
cytotoxicity ([1]; 10 nM): 1.05
cytotoxicity ([1]; 100 nM): 1.42
cytotoxicity ([1]; 1000 nM): 1.19
cytotoxicity ([1]; 10000 nM): 0.636
cytotoxicity (Jurkat [5]; 1 nM): 1.08
cytotoxicity (Jurkat [5]; 10 nM): 0.992
cytotoxicity (Jurkat [5]; 100 nM): 0.929
cytotoxicity (Jurkat [5]; 1000 nM): 0.871
cytotoxicity (Jurkat [5]; 10000 nM): 0.987
metabolic activity ([6]; 1 nM): 0.862
metabolic activity ([6]; 10 nM): 1.05
metabolic activity ([6]; 100 nM): 0.872
metabolic activity ([6]; 1000 nM): 0.881
metabolic activity ([6]; 10000 nM): 0.697
metabolic activity (Jurkat [10]; 1 nM): 0.891
metabolic activity (Jurkat [10]; 10 nM): 0.945
metabolic activity (Jurkat [10]; 100 nM): 0.974
metabolic activity (Jurkat [10]; 1000 nM): 0.952
metabolic activity (Jurkat [10]; 10000 nM): 0.882
confluency ([11]; 1 nM): 1.08
confluency ([11]; 10 nM): 1.18
confluency ([11]; 100 nM): 1.3
confluency ([11]; 1000 nM): 1.26
confluency ([11]; 10000 nM): 0.617
confluency (Jurkat [15]; 1 nM): 1
confluency (Jurkat [15]; 10 nM): 0.981
confluency (Jurkat [15]; 100 nM): 0.912
confluency (Jurkat [15]; 1000 nM): 0.878
confluency (Jurkat [15]; 10000 nM): 1.03

O=C(CCCCCCC(=O)Nc1ccccc1)NO [Vorinostat]
metabolic activity ([6]; 1 nM): 0.859
metabolic activity ([6]; 10 nM): 0.862
metabolic activity ([6]; 100 nM): 0.902
metabolic activity ([6]; 1000 nM): 1.02
metabolic activity ([6]; 10000 nM): 0.913
metabolic activity ([8]; 1 nM): 0.849
metabolic activity ([8]; 10 nM): 0.979
metabolic activity ([8]; 100 nM): 0.964
metabolic activity ([8]; 1000 nM): 0.945
metabolic activity ([8]; 10000 nM): 0.788
metabolic activity (Jurkat [10]; 1 nM): 0.947
metabolic activity (Jurkat [10]; 10 nM): 0.907
metabolic activity (Jurkat [10]; 100 nM): 0.815
metabolic activity (Jurkat [10]; 1000 nM): 0.809
metabolic activity (Jurkat [10]; 10000 nM): 0.764
confluency (Jurkat [15]; 1 nM): 1.03
confluency (Jurkat [15]; 10 nM): 1
confluency (Jurkat [15]; 100 nM): 1.14
confluency (Jurkat [15]; 1000 nM): 1.11
confluency (Jurkat [15]; 10000 nM): 1.36
